In patent EP4711470A1, “METHOD AND KIT FOR EVALUATING ENZYME ACTIVITY” (The University of Tokyo, priority 2023, dated 2025):

Tests used:
[1] = tested on: NADH:quinone oxidoreductase; experiment: Reactivity of Q-sHMRG with DT-diaphorase and increase in fluorescence; type: biochemical, microorganism; settings: 1 µM probe, HEPES buffer pH 7.4, 25°C
Protocol: Q-sHMRG prepared in Synthesis Example 1 was dissolved to give a final concentration of 1 µM in a HEPES buffer (100 mM, pH 7.4) containing CaCl2 (1 mM), MgCl2 (1 mM), DTT (dithiothreitol, 100 µM), and Triton X-100 (250 µM), and an absorption spectrum was measured. Then, NADH (100 µM) and NADH:quinone oxidoreductase (10 µg/mL, Toyobo, DAD-311) were added, and after incubation at 25°C for 4 hours, an absorption spectrum was measured again. Results are shown in (A) of FIG. 1.
Also, Q-sHMRG prepared in Synthesis Example 1 was dissolved to give a final concentration of 1 µM in a HEPES buffer (100 mM, pH 7.4) containing CaCl2 (1 mM), MgCl2 (1 mM), DTT (dithiothreitol, 100 µM), and Triton X-100 (250 µM), and then NADH at various concentrations and NADH:quinone oxidoreductase (10 µg/mL) were added. After incubation at 25°C for 30 minutes, fluorescence intensity was measured. Results are shown in (B) and (C) of FIG. 1.

lactate dehydrogenase = experiment: Single-molecule coupled assay of lactate dehydrogenase oxidative activity in human plasma (microchamber array); type: biochemical; settings: for S/N ratio compared with SiRWST-3 or Q-dsAMC as fluorescent probe: same experiment, with SiRWST-3, 100 µM 1-MeO-PMS in place of NADH:quinone oxidoreductase
Protocol: To a HEPES buffer (100 mM, pH 7.4) containing CaCl2 (1 mM), MgCl2 (1 mM), DTT (dithiothreitol, 100 µM), and Triton X-100 (200 µM), Q-sHMRG (30 µM), Q-HMRG (30 µM) or resazurin (30 µM), lactate (1 mM), NAD^+ (oxidized nicotinamide adenine dinucleotide, 500 µM), and NADH:quinone oxidoreductase (50 µg/mL, Toyobo, DAD-311) were added. Then, plasma obtained from a healthy human subject was added to give a 3000-fold dilution (preparation step, Step (A)). 40 µL of the solution (a pre-encapsulation aqueous solution) thus prepared was introduced into a microchamber array Simoa (registered trademark) disk (Quanterix). Subsequently, 80 µL of Fluorinert (registered trademark) FC-70 (Sigma-Aldrich) as a hydrophobic solvent was introduced into the microchamber array to remove an aqueous solution not introduced into wells, and thereby W/O droplets were formed in wells. After incubation at room temperature for 3 hours (reaction step, Step (B)), fluorescence images were acquired by an epifluorescence microscope Ti2 (Nikon) equipped with a 20× objective lens (Plan Apo 20×), an sCMOS camera (ORCA-Fusion C14440, Hamamatsu Photonics), a white light unit (X-Cite Xylis, Opto Science), and a motorized stage (fluorescence measurement step, Step (C)).

[2] = Fluorescence characteristics of reduction products; settings: may be values measured in PBS at pH 7.4
Description: These fluorescence characteristics may be values measured, for example, in phosphate-buffered saline (PBS) at pH 7.4.

SMILES	fluorescence intensity increased by a reduction reaction by NADH:quinone oxidoreductase ([1]; NADH, NADH:quinone oxidoreductase 10 µg/mL (DAD-311)) [fold]	lowest quantity of NADH that the combination of probe and NADH:quinone oxidoreductase can detect ([1]; NADH:quinone oxidoreductase 10 µg/mL, 30 minutes) [µM]	ratio (S/N ratio) of fluorescence intensity of a well encapsulating lactate dehydrogenase to a well not encapsulating it (lactate dehydrogenase; 30 µM probe, lactate 1 mM, NAD+ 500 µM, plasma 3000-fold dilution, 3 hours, compared among Q-sHMRG, Q-HMRG and resazurin)	S/N ratio compared with SiRWST-3 or Q-dsAMC as fluorescent probe (lactate dehydrogenase)	molar extinction coefficient ([2]; at maximum absorption wavelength) [L/mol/cm]	fluorescence quantum yield [2]	mathematical product of molar extinction coefficient and fluorescence quantum yield [2]	maximum absorption wavelength [2] [nm]	maximum fluorescence wavelength [2] [nm]
CC1=C(C)C(=O)C(C(C)(C)CC(=O)Nc2ccc3c(c2)Oc2cc(N)ccc2C32OCc3ccc(S(=O)(=O)O)cc32)=C(C)C1=O (stereo not shown) [Q-sHMRG]	235	0.01	greater	larger	–	–	–	–	–
O=c1ccc2[n+]([O-])c3ccc(O)cc3oc-2c1 [resazurin, reference compound]	–	–	–	larger	–	–	–	–	–
N=c1ccc2c(-c3ccc(S(=O)(=O)O)cc3CO)c3ccc(N)cc3oc-2c1 [sHMRG, 3',6'-diamino-3H-spiro[isobenzofuran-1,9'-xanthene]-5/6-sulfonic acid]	–	–	–	–	80000	0.92	74000	498	517
